Results from article PMC6350255 (Journal of medicinal chemistry, 2018).
“Also recorded” adds a separate entry of the source.

Key:
[1] = tested on: NFAT2-GFP nuclear translocation in R7T1 rat beta cell line; experiment: NFAT2 translocation assay; format: cell-based; conditions: 10 μM, 24 h
[2] = tested on: human β-cells (dispersed human pancreatic islets); format: cell-based; conditions: for human β-cell proliferation in words, dose response / overall: doses of 3–30 μM

Compound: COc1ccc2c(c1)[nH]c1c(CO)nccc12 [Compound 2–2, 1-Hydroxymethyl-7-methoxy-9H-β-carboline]
- NFAT2 translocation to nucleus [1]: drove NFAT2 translocation
- beta cell toxicity (human β-cells): did not cause toxicity

Compound: COc1ccc2c(c1)[nH]c1c(C)nc(CO)cc12 [2–8, (1-Methyl-7-methoxy-9H-pyrido[3,4-b]indol-3-yl)methanol]
- NFAT2 translocation to nucleus [1]: drove NFAT2 translocation
- beta cell toxicity (human β-cells): did not cause toxicity
- human β-cell proliferation, Ki-67 immunolabeling ([2]; 10 μM, 96 h): comparable to that of harmine
- human β-cell proliferation in words, dose response / overall [2]: excellent human β-cell proliferation; also recorded: caused proliferation in a dose-dependent manner; also recorded: superior human β-cell proliferation at a lower dose as compared to 2–2; also recorded: comparable to that of harmine

Compound: COc1ccc2c(c1)[nH]c1c(C(C)=O)nccc12 [Compound 3–2, 1-Acetyl-7-methoxy-9H-β-carboline]
- human β-cell proliferation in words, dose response / overall [2]: comparable to that of harmine

Compound: COc1ccc2c(c1)[nH]c1c(Cl)nccc12 [1–5, 1-Chloro-7-methoxy-9H-β-carboline]
- human β-cell proliferation in words, dose response / overall [2]: comparable to that of harmine
